Reference: publication PMC11530689, “Anti colorectal cancer activity and in silico studies of novel pyridine nortopsentin analog as cyclin dependent kinase 6 inhibitor” (Scientific Reports, 2024)

Assays:
Test in all cases: NCI 60 cell line screen
Type in all cases: cell-based
SW-620 = settings: SW-620, Colon Cancer; single concentration 10^−5 M
Experimental: (§1) The cytotoxic activity of nortopsintin analogs (4a-4j) was determined by the national cancer institute (NCI, Bethesda, Maryland, USA) against 60 different cancer cell lines at a single concentration of (10^-5 M). For the determination of IC50 value, we used MTT assay kit (Sigma) according to the manufacturer's protocol. HCT-116 cells were seeded into a 96-well plate at a concentration of 20,000 cells/well. After 24 h, the media was aspirated and replaced with serum-free media containing serial dilutions of the 4i compound. […] The percentage of cytotoxicity was calculated using the following equation: % Cytotoxicity = [1 - ([…])] × 100.

HCC-2998 = settings: HCC-2998, Colon Cancer; single concentration 10^−5 M
Experimental: as §1

U251 = settings: U251, CNS Cancer; single concentration 10^−5 M
Experimental: as §1

SK-MEL-2 = settings: SK-MEL-2, Melanoma; single concentration 10^−5 M
Experimental: as §1

MCF7 = settings: MCF7, Breast Cancer; single concentration 10^−5 M
Experimental: as §1

SNB-19 = settings: SNB-19, CNS Cancer; single concentration 10^−5 M
Experimental: as §1

OVCAR-4 = settings: OVCAR-4, Ovarian Cancer; single concentration 10^−5 M
Experimental: as §1

NCI-H226 = settings: NCI-H226, Non-Small Cell Lung Cancer; single concentration 10^−5 M
Experimental: as §1

SK-OV-3 = settings: SK-OV-3, Ovarian Cancer; single concentration 10^−5 M
Experimental: as §1

K-562 = settings: K-562, Leukemia; single concentration 10^−5 M
Experimental: as §1

RXF 393 = settings: RXF 393, Renal Cancer; single concentration 10^−5 M
Experimental: as §1

MDA-MB-231/ATCC = settings: Breast Cancer, single concentration 10^−5 M
Experimental: as §1

SK-MEL-5 = settings: SK-MEL-5, Melanoma; single concentration 10^−5 M
Experimental: as §1

A498 = settings: A498, Renal Cancer; single concentration 10^−5 M
Experimental: as §1

MALME-3M = settings: Melanoma, single concentration 10^−5 M
Experimental: as §1

A549/ATCC = settings: Non-Small Cell Lung Cancer, single concentration 10^−5 M
Experimental: as §1

CCRF-CEM = settings: Leukemia, single concentration 10^−5 M
Experimental: as §1

SF-268 = settings: SF-268, CNS Cancer; single concentration 10^−5 M
Experimental: as §1

SR = settings: Leukemia, single concentration 10^−5 M
Experimental: as §1

786-0 = settings: 786-0, Renal Cancer; single concentration 10^−5 M
Experimental: as §1

ACHN = settings: Renal Cancer, single concentration 10^−5 M
Experimental: as §1

MDA-MB-468 = settings: MDA-MB-468, Breast Cancer; single concentration 10^−5 M
Experimental: as §1

NCI-H522 = settings: NCI-H522, Non-Small Cell Lung Cancer; single concentration 10^−5 M
Experimental: as §1

OVCAR-3 = settings: OVCAR-3, Ovarian Cancer; single concentration 10^−5 M
Experimental: as §1

COLO205 = settings: COLO205, Colon Cancer; single concentration 10^−5 M
Experimental: as §1

NCI-H23 = settings: NCI-H23, Non-Small Cell Lung Cancer; single concentration 10^−5 M
Experimental: as §1

NCI/ADR-RES = settings: Ovarian Cancer, single concentration 10^−5 M
Experimental: as §1

OVCAR-8 = settings: OVCAR-8, Ovarian Cancer; single concentration 10^−5 M
Experimental: as §1

TK-10 = settings: TK-10, Renal Cancer; single concentration 10^−5 M
Experimental: as §1

KM12 = settings: KM12, Colon Cancer; single concentration 10^−5 M
Experimental: as §1

T-47D = settings: Breast Cancer, single concentration 10^−5 M
Experimental: as §1

SF-295 = settings: SF-295, CNS Cancer; single concentration 10^−5 M
Experimental: as §1

RPMI-8226 = settings: RPMI-8226, Leukemia; single concentration 10^−5 M
Experimental: as §1

UACC-62 = settings: UACC-62, Melanoma; single concentration 10^−5 M
Experimental: as §1

CAKI-1 = settings: CAKI-1, Renal Cancer; single concentration 10^−5 M
Experimental: as §1

PC-3 = settings: PC-3, Prostate Cancer; single concentration 10^−5 M
Experimental: as §1

DU-145 = settings: DU-145, Prostate Cancer; single concentration 10^−5 M
Experimental: as §1

Row | SMILES | Growth % (SW-620) | Growth % (HCC-2998) | Growth % (U251) | Growth % (SK-MEL-2) | Growth % (MCF7) | Growth % (SNB-19) | Growth % (OVCAR-4) | Growth % (NCI-H226) | Growth % (SK-OV-3) | Growth % (K-562) | Growth % (RXF 393) | Growth % (MDA-MB-231/ATCC) | Growth % (SK-MEL-5) | Growth % (A498) | Growth % (MALME-3M) | Growth % (A549/ATCC) | Growth % (CCRF-CEM) | Growth % (SF-268) | Growth % (SR) | Growth % (786-0) | also measured
1 | COc1ccc(-c2cc(-c3c[nH]c4ccccc34)nc(-c3c[nH]c4ccccc34)c2C#N)cc1 [4e] | 113.43% | 128.75% | 102.14% | 100.09% | 90.48% | 102.42% | 106.10% | 92.14% | 94.59% | 96.99% | 94.44% | 102.65% | 97.12% | 108.69% | 113.82% | 99.97% | 101.65% | 105.10% | 89.59% | 102.90% | Growth % (ACHN): 95.12%; Growth % (MDA-MB-468): 102.09%; Growth % (NCI-H522): 92.71%; Growth % (OVCAR-3): 96.29%; Growth % (COLO205): 102.89%; Growth % (NCI-H23): 103.56%; Growth % (NCI/ADR-RES): 108.38%; Growth % (OVCAR-8): 98.49%; Growth % (TK-10): 141.73%; Growth % (KM12): 96.65%; Growth % (T-47D): 86.61%; Growth % (SF-295): 95.83%; Growth % (RPMI-8226): 104.41%; Growth % (UACC-62): 95.53%; Growth % (CAKI-1): 84.47%; Growth % (PC-3): 89.91%; Growth % (DU-145): 108.02%
2 | COc1cc(-c2cc(-c3c[nH]c4ccccc34)nc(-c3c[nH]c4ccccc34)c2C#N)cc(OC)c1OC [4g] | 100.40% | 107.87% | 100.17% | 92.02% | 88.35% | 98.31% | 103.83% | 87.22% | 97.19% | 90.08% | 120.31% | 82.84% | 98.25% | 103.11% | 88.70% | 99.60% | 99.17% | 97.03% | 94.92% | 102.99% | Growth % (ACHN): 98.52%; Growth % (MDA-MB-468): 93.79%; Growth % (NCI-H522): 93.33%; Growth % (OVCAR-3): 102.73%; Growth % (COLO205): 106.57%; Growth % (NCI-H23): 93.03%; Growth % (NCI/ADR-RES): 100.17%; Growth % (OVCAR-8): 98.26%; Growth % (TK-10): 128.09%; Growth % (KM12): 99.69%; Growth % (T-47D): 96.11%; Growth % (SF-295): 95.05%; Growth % (RPMI-8226): 97.18%; Growth % (UACC-62): 87.61%; Growth % (CAKI-1): 75.97%; Growth % (PC-3): 91.47%; Growth % (DU-145): 106.13%
3 | N#Cc1c(-c2ccc([N+](=O)[O-])cc2)cc(-c2c[nH]c3ccccc23)nc1-c1c[nH]c2ccccc12 [4h] | 105.72% | 108.98% | 99.87% | 96.75% | 90.39% | 100.62% | 99.28% | 87.03% | 90.72% | 94.26% | 111.16% | 96.84% | 97.67% | 99.31% | 102.24% | 96.38% | 103.06% | 93.92% | 84.51% | 106.06% | Growth % (ACHN): 94.69%; Growth % (MDA-MB-468): 92.34%; Growth % (NCI-H522): 95.41%; Growth % (OVCAR-3): 97.76%; Growth % (COLO205): 114.22%; Growth % (NCI-H23): 97.26%; Growth % (NCI/ADR-RES): 96.36%; Growth % (OVCAR-8): 98.23%; Growth % (TK-10): 142.08%; Growth % (KM12): 98.09%; Growth % (T-47D): 88.78%; Growth % (SF-295): 100.99%; Growth % (RPMI-8226): 95.92%; Growth % (UACC-62): 85.82%; Growth % (CAKI-1): 82.68%; Growth % (PC-3): 93.76%; Growth % (DU-145): 103.04%
4 | CN(C)c1ccc(-c2cc(-c3c[nH]c4ccccc34)nc(-c3c[nH]c4ccccc34)c2C#N)cc1 [4i] | 46.63% | 88.23% | 92.50% | 102.08% | 49.30% | 79.65% | 95.26% | 79.62% | 94.88% | 39.74% | 106.90% | 99.81% | 96.50% | 98.45% | 97.41% | 89.56% | 78.55% | 96.47% | 32.38% | 99.08% | Growth % (ACHN): 98.60%; Growth % (MDA-MB-468): 81.79%; Growth % (NCI-H522): 93.15%; Growth % (OVCAR-3): 91.03%; Growth % (COLO205): 91.18%; Growth % (NCI-H23): 88.40%; Growth % (NCI/ADR-RES): 90.91%; Growth % (OVCAR-8): 96.39%; Growth % (TK-10): 107.28%; Growth % (KM12): 58.37%; Growth % (T-47D): 95.86%; Growth % (SF-295): 79.83%; Growth % (RPMI-8226): 69.39%; Growth % (UACC-62): 85.78%; Growth % (CAKI-1): 68.37%; Growth % (PC-3): 89.56%; Growth % (DU-145): 99.65%
